System: ASPS-1 complex tumor spheroids, viability
Assay: Anticancer human tumor ASPS-1 cell line growth inhibition;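 also: spheroids exposed to agents for 7 days after 3 days of growth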;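 as to viability, T/C: 100% = DMSO vehicle treated spheroids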
Conditions: for IC50: curve of first compound; for viability, T/C: stronger effect = lower value
How it was run: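 Single agents and combinations were tested on spheroids built from tumor cells plus HUVEC and hMSC, at half-log dilutions starting at or near clinical Cmax, else 10 microM; final DMSO 0.25% (v/v).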

CC(C)n1c(=O)n(C)c2cnc3cc(F)c(-c4ccc(OCCCN5CCCCC5)nc4)cc3c21 + Cn1nnc2c(C(N)=O)ncn2c1=O
IC50 (second compound 1 µM): 8.4 µM
IC50 (second compound 3.16 µM): 8.14 µM
IC50 (second compound 10 µM): 2.56 µM
IC50 (second compound 31.6 µM): 1.58 µM
IC50 (second compound 100 µM): 0.386 µM
viability, T/C (second compound 1 µM, first compound 0.0316 µM): 106%
viability, T/C (second compound 1 µM, first compound 0.1 µM): 104%
viability, T/C (second compound 1 µM, first compound 0.316 µM): 102%
viability, T/C (second compound 1 µM, first compound 1 µM): 102%
viability, T/C (second compound 1 µM, first compound 3.16 µM): 93.4%
viability, T/C (second compound 1 µM, first compound 10 µM): 42.1%
viability, T/C (second compound 3.16 µM, first compound 0.0316 µM): 102%
viability, T/C (second compound 3.16 µM, first compound 0.1 µM): 102%
viability, T/C (second compound 3.16 µM, first compound 0.316 µM): 103%
viability, T/C (second compound 3.16 µM, first compound 1 µM): 88.7%
viability, T/C (second compound 3.16 µM, first compound 3.16 µM): 82.4%
viability, T/C (second compound 3.16 µM, first compound 10 µM): 43%
viability, T/C (second compound 10 µM, first compound 0.0316 µM): 91.4%
viability, T/C (second compound 10 µM, first compound 0.1 µM): 79.8%
viability, T/C (second compound 10 µM, first compound 0.316 µM): 83.5%
viability, T/C (second compound 10 µM, first compound 1 µM): 86.7%
viability, T/C (second compound 10 µM, first compound 3.16 µM): 42%
viability, T/C (second compound 10 µM, first compound 10 µM): 25.4%
viability, T/C (second compound 31.6 µM, first compound 0.0316 µM): 81.1%
viability, T/C (second compound 31.6 µM, first compound 0.1 µM): 78.1%
viability, T/C (second compound 31.6 µM, first compound 0.316 µM): 77.7%
viability, T/C (second compound 31.6 µM, first compound 1 µM): 54.7%
viability, T/C (second compound 31.6 µM, first compound 3.16 µM): 39.3%
viability, T/C (second compound 31.6 µM, first compound 10 µM): 19.9%
viability, T/C (second compound 100 µM, first compound 0.0316 µM): 74.5%
viability, T/C (second compound 100 µM, first compound 0.1 µM): 60.5%
viability, T/C (second compound 100 µM, first compound 0.316 µM): 56.1%
viability, T/C (second compound 100 µM, first compound 1 µM): 41.2%
viability, T/C (second compound 100 µM, first compound 3.16 µM): 24.4%
viability, T/C (second compound 100 µM, first compound 10 µM): 20.2%
